Test results: US11230535B2, “CFTR regulators and methods of use thereof” (THE REGENTS OF THE UNIVERSITY OF CALIFORNIA, priority 2015, dated 2022)
Like-named read-outs stand apart in the source and are kept apart here.

Target: human wild-type CFTR (Homo sapiens, UniProt P13569)
Experiment: Cell-based plate reader (YFP iodide influx) assay of CFTR function
Set-up: expressed in transfected cells; host or cells: Fischer rat thyroid (FRT) cells stably co-expressing YFP-H148Q
Details: for % Activation: commercial analogs, FRT cells with YFP and wildtype CFTR, 125 nM forskolin
Experimental: The initiate rate of I^− influx was computed by determined using exponential regression. All compound plates contained negative controls (DMSO vehicle) and positive controls (20 μM forskolin).
High-throughput screening. […] The initiate rate of I^− influx was computed by determined using exponential regression. All compound plates contained negative controls (DMSO vehicle) and positive controls ([…] forskolin).
Platereader assays of chloride channel function. CFTR activity was assayed as described. […] I^− influx was measured in a plate reader with initial baseline read for 2 s and then for 12 s after rapid addition of an I^−-containing solution. TMEM16A activity was assayed similarly as described using FRT cells co-expressing YFP and TMEM16A. Activity of non-TMEM16A CaCC was assayed as described in HT-29 cells expressing YFP. In each assay initial rates of I^− influx were computed as a linear measure of channel function.

[1] = N,N-diethyl-N′-aryl-1,3,5-triazine diamine analogs, read-out: EC50 for CFTR activation

Chain of human wild-type CFTR (P13569 whole entry): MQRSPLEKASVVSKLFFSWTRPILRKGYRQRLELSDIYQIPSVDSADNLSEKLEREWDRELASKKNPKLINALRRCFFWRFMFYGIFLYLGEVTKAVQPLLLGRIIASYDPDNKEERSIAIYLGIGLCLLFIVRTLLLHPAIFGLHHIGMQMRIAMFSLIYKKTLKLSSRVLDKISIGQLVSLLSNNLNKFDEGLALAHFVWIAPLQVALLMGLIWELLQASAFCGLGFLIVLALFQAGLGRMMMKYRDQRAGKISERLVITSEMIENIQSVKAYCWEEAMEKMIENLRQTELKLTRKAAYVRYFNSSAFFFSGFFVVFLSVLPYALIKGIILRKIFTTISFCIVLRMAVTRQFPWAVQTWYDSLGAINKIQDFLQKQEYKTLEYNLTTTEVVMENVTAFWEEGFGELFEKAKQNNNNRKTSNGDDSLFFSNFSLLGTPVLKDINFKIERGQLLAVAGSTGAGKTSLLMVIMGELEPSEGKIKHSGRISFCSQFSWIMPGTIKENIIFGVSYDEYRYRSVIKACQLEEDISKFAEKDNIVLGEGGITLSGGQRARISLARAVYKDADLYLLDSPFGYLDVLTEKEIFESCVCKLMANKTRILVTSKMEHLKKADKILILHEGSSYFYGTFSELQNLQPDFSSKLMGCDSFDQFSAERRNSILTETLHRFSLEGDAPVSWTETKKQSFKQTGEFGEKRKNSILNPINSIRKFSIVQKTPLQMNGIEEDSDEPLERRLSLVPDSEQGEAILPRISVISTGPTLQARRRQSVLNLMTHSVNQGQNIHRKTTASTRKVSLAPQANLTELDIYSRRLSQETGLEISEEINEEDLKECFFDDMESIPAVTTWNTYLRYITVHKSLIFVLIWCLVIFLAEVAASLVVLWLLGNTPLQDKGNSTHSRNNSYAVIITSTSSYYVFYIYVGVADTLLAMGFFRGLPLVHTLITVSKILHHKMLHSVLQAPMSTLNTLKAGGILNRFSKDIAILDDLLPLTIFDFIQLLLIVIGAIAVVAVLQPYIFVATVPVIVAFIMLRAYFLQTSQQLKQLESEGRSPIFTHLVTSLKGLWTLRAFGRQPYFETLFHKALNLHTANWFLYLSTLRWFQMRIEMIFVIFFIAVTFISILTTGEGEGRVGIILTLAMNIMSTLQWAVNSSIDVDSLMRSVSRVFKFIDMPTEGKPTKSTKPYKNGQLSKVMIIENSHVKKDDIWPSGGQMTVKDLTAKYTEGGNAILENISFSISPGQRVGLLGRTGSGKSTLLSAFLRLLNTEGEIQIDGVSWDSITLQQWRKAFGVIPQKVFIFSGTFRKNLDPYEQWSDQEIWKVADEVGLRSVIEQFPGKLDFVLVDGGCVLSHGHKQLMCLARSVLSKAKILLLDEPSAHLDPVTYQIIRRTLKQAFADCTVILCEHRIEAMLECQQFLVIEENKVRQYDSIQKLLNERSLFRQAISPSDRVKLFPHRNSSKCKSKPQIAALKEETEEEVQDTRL

Structure (SMILES) | % Activation | other results
CCN(CC)c1nc(Nc2cccc(C(=O)O)c2)nc(OC(C(F)(F)F)C(F)(F)F)n1 [6a, 3-({4-(diethylamino)-6-[(1,1,1,3,3,3-hexafluoropropan-2-yl)oxy]-1,3,5-triazin-2-yl}amino)benzoic acid] | – | EC50 [1]: 160 nM
CCN(CC)c1nc(Nc2cccc(F)c2)nc(OC(C(F)(F)F)C(F)(F)F)n1 [6b, N,N-Diethyl-N′-(3-fluorophenyl)-6-[(1,1,1,3,3,3-hexafluoropropan-2-yl)oxy]-1,3,5-triazine-2,4-diamine] | – | EC50 [1]: 140 nM
CCN(CC)c1nc(Nc2ccc(C(=O)O)cc2)nc(OC(C(F)(F)F)C(F)(F)F)n1 [6e, 4-({4-(Diethylamino)-6-[(1,1,1,3,3,3-hexafluoropropan-2-yl)oxy]-1,3,5-triazin-2-yl}amino)benzoic acid] | – | EC50 [1]: 900 nM
CCN(CC)c1nc(Nc2ccc(F)cc2)nc(OC(C(F)(F)F)C(F)(F)F)n1 [6f, N,N-Diethyl-N′-(4-fluorophenyl)-6-[(1,1,1,3,3,3-hexafluoropropan-2-yl)oxy]-1,3,5-triazine-2,4-diamine] | – | EC50 [1]: 700 nM
CCN(CC)c1nc(Nc2ccc([N+](=O)[O-])cc2)nc(OC(C(F)(F)F)C(F)(F)F)n1 [6g, N,N-Diethyl-6-[(1,1,1,3,3,3-hexafluoropropan-2-yl)oxy]-N-(4-nitrophenyl)-1,3,5-triazine-2,4-diamine] | – | EC50 [1]: 18000 nM
CCN(CC)c1nc(Nc2ccc3cn[nH]c3c2)nc(OC(C(F)(F)F)C(F)(F)F)n1 [6i, N,N-Diethyl-6-[(1,1,1,3,3,3-hexafluoropropan-2-yl)oxy]-N-(1H-indazol-6-yl)-1,3,5-triazine-2,4-diamine] | – | EC50 (bicyclic aniline analogs, read-out: EC50): 2800 nM
CCN(CC)c1nc(Nc2ccccc2)nc(OCC(F)(F)C(F)F)n1 [7a, N,N-Diethyl-N′-phenyl-6-(2,2,3,3-tetrafluoropropoxy)-1,3,5-triazine-2,4-diamine] | – | EC50 [1]: 2000 nM
CCN(CC)c1nc(Nc2cccc(C(=O)O)c2)nc(OCC(F)(F)C(F)F)n1 [7b, 3-{[4-(Diethylamino)-6-(2,2,3,3-tetrafluoropropoxy)-1,3,5-triazin-2-yl]amino}benzoic acid] | – | EC50 [1]: 500 nM
CCN(CC)c1nc(Nc2cccc(F)c2)nc(OCC(F)(F)C(F)F)n1 [7c, N,N-Diethyl-N′-(3-fluorophenyl)-6-(2,2,3,3-tetrafluoropropoxy)-1,3,5-triazine-2,4-diamine] | – | EC50 [1]: 1600 nM
CCN(CC)c1nc(Nc2cccc(Cl)c2)nc(OCC(F)(F)C(F)F)n1 [7d, N′-(3-Chlorophenyl)-N,N-diethyl-6-(2,2,3,3-tetrafluoropropoxy)-1,3,5-triazine-2,4-diamine] | – | EC50 [1]: 5400 nM
CCN(CC)c1nc(Nc2cccc([N+](=O)[O-])c2)nc(OCC(F)(F)C(F)F)n1 [7e, N,N-Diethyl-N′-(3-nitrophenyl)-6-(2,2,3,3-tetrafluoropropoxy)-1,3,5-triazine-2,4-diamine] | – | EC50 [1]: 1200 nM
CCN(CC)c1nc(Nc2ccc(F)cc2)nc(OCC(F)(F)C(F)F)n1 [7g, N,N-Diethyl-N′-(4-fluorophenyl)-6-(2,2,3,3-tetrafluoropropoxy)-1,3,5-triazine-2,4-diamine] | – | EC50 [1]: 4800 nM
CNc1nc(Nc2ccc(C(C)=O)cc2)nc(OC(C(F)(F)F)C(F)(F)F)n1 [K001] | 32% | –
C=CCNc1nc(Nc2ccc(F)cc2)nc(OC(C(F)(F)F)C(F)(F)F)n1 [K002] | 63% | –
CC(C)(C)Nc1nc(Nc2ccc(OC(F)(F)F)cc2)nc(OCC(F)(F)F)n1 [K003] | 16% | –
FC(F)(F)C(Oc1nc(Nc2cccc3ccccc23)nc(OC(C(F)(F)F)C(F)(F)F)n1)C(F)(F)F [K004] | 16% | –
O=[N+]([O-])c1ccccc1Nc1nc(OCC(F)(F)F)nc(OCC(F)(F)F)n1 [K005] | 29% | –
CNc1nc(Nc2ccccc2C(F)(F)F)nc(OC(C(F)(F)F)C(F)(F)F)n1 [K007] | 21% | –
COc1nc(Nc2ccccc2)nc(Nc2ccccc2)n1 [K008] | 32% | –
CCOc1nc(Nc2ccccc2)nc(NC2CCCC2)n1 [K009] | 57% | –
FC(F)(F)C(Oc1nc(Nc2ccccc2)nc(OC(C(F)(F)F)C(F)(F)F)n1)C(F)(F)F [K010] | 21% | –

Structure (SMILES) | % Activation | other results
Cc1ccc(Nc2nc(OC(C(F)(F)F)C(F)(F)F)nc(OC(C(F)(F)F)C(F)(F)F)n2)cc1 [K011] | 20% | –
Cc1ccccc1Nc1nc(OC(C(F)(F)F)C(F)(F)F)nc(OC(C(F)(F)F)C(F)(F)F)n1 [K012] | 19% | –
O=[N+]([O-])c1ccccc1Nc1nc(OC(C(F)(F)F)C(F)(F)F)nc(OC(C(F)(F)F)C(F)(F)F)n1 [K013] | 15% | –
O=[N+]([O-])c1cccc(Nc2nc(OC(C(F)(F)F)C(F)(F)F)nc(OC(C(F)(F)F)C(F)(F)F)n2)c1 [K014] | 18% | –
O=[N+]([O-])c1ccc(Nc2nc(OC(C(F)(F)F)C(F)(F)F)nc(OC(C(F)(F)F)C(F)(F)F)n2)cc1 [K015] | 6% | –
CC(=O)c1ccc(Nc2nc(OC(C(F)(F)F)C(F)(F)F)nc(OC(C(F)(F)F)C(F)(F)F)n2)cc1 [K016] | 19% | –
FC(F)(F)C(Oc1nc(Nc2cccnc2)nc(OC(C(F)(F)F)C(F)(F)F)n1)C(F)(F)F [K017] | 16% | –
FC(F)(F)COc1nc(Nc2ccccc2)nc(OCC(F)(F)F)n1 [K018] | 60% | –
Cc1ccccc1Nc1nc(OCC(F)(F)F)nc(OCC(F)(F)F)n1 [K019] | 28% | –
CNc1nc(OCC(F)(F)F)nc(N(c2ccccc2)c2ccccc2)n1 [K020] | 37% | –
COc1nc(NCCN2CCOCC2)nc(Nc2ccccc2)n1 [K021] | 16% | –
COc1nc(Nc2ccc(Cl)cc2)nc(NC(C)(C)C)n1 [K022] | 53% | –
COc1nc(Nc2ccc([N+](=O)[O-])cc2)nc(OC)n1 [K023] | 41% | –
CNc1nc(Nc2ccc(OC(F)(F)Cl)cc2)nc(OCC(F)(F)F)n1 [K024] | 64% | –
FC(F)(F)COc1nc(Nc2ccc(OC(F)(F)Cl)cc2)nc(OCC(F)(F)F)n1 [K026] | 16% | –
CC(C)Nc1nc(Nc2ccc([N+](=O)[O-])cc2)nc(OC(C(F)(F)F)C(F)(F)F)n1 [K027] | 20% | –
COc1nc(Nc2ccc(OC)c(Cl)c2)nc(OC)n1 [K028] | 23% | –
CC(C)(C)Nc1nc(Nc2ccc(OC(F)(F)Cl)cc2)nc(OCC(F)(F)F)n1 [K029] | 9% | –
CCCCNc1nc(Nc2ccc(OC(F)(F)F)cc2)nc(OCC(F)(F)F)n1 [K030] | 16% | –
COc1nc(Nc2ccc(O)cc2)nc(OC(C(F)(F)F)C(F)(F)F)n1 [K031] | 61% | –
COc1nc(NCCO)nc(Nc2ccc(Cl)cc2)n1 [K033] | 22% | –

Structure (SMILES) | % Activation | other results
C=CCNc1nc(Nc2ccc(Cl)cc2)nc(OC)n1 [K034] | 73% | –
COc1nc(Nc2ccc(Cl)cc2)nc(NC2CCCCC2)n1 [K035] | 55% | –
CCCCCCNc1nc(Nc2ccc(Cl)cc2)nc(OCC)n1 [K036] | 46% | –
CCOc1nc(Nc2ccc(Cl)cc2)nc(NC2CCCCC2)n1 [K038] | 53% | –
CCCCCCNc1nc(Nc2ccc(I)cc2)nc(OC)n1 [K039] | 27% | –
COc1nc(NCCO)nc(Nc2ccc(I)cc2)n1 [K040] | 17% | –
C=CCNc1nc(Nc2ccc(I)cc2)nc(OC)n1 [K041] | 35% | –
COc1nc(Nc2ccc(I)cc2)nc(OC2CCCCC2)n1 [K042] | 15% | –
CCOc1nc(NCCO)nc(Nc2ccc(I)cc2)n1 [K043] | 19% | –
C=CCNc1nc(Nc2ccc(I)cc2)nc(OCC)n1 [K044] | 55% | –
CCOc1nc(NCCN2CCOCC2)nc(Nc2ccc(I)cc2)n1 [K045] | 15% | –
CCOc1nc(Nc2ccc(I)cc2)nc(NC2CCCCC2)n1 [K046] | 16% | –
COc1nc(NCCO)nc(Nc2ccc([N+](=O)[O-])cc2)n1 [K047] | 17% | –
C=CCNc1nc(Nc2ccc([N+](=O)[O-])cc2)nc(OC)n1 [K048] | 46% | –
CCOc1nc(NCCO)nc(Nc2ccc([N+](=O)[O-])cc2)n1 [K049] | 28% | –
C=CCNc1nc(Nc2ccc([N+](=O)[O-])cc2)nc(OCC)n1 [K050] | 66% | –
CCOc1nc(Nc2ccc([N+](=O)[O-])cc2)nc(NC2CCCCC2)n1 [K051] | 45% | –
C=CCNc1nc(Nc2ccc(I)cc2C)nc(OCC)n1 [K053] | 24% | –
CCOc1nc(Nc2ccc(I)cc2C)nc(NC2CCCCC2)n1 [K054] | 14% | –
CN(C)c1nc(OC(C(F)(F)F)C(F)(F)F)nc(N(c2ccccc2)c2ccccc2)n1 [K055] | 42% | –
